Where two headings read alike, the source gives them in different places.
How the values were obtained:
[1] = system: asymptomatic patients with CRPC progressing on Abi; assay: TRANSFORMER randomized Phase II study, BAT vs. Enza with crossover; assay type: in vivo, human
Experimental: The TRANSFORMER study (NCT02286921) was a DOD-sponsored randomized Phase II study designed to compare the efficacy of BAT vs. Enza in asymptomatic patients with CRPC progressing on Abi, FIG. 19A (2). The study was conducted at 17 academic centers across the US. The study was coordinated by the Prostate Cancer Disease Group clinical research team at Johns Hopkins, who performed regulatory oversight, study/site monitoring, and data analyses. From 2015-2018, 195 patients underwent 1:1 randomization to either standard dose Enza (n=101) or BAT (n=94) at 400 mg IM every 28 days. The primary endpoint was clinical/radiographic PFS. At time of progression, patients were given the option to crossover to the alternate therapy. The trial was designed to show a 50% improvement in the primary endpoint for BAT vs. Enza. […] Objective response was 24.4% for BAT and 4.2% for Enza (p=0.067). Best PSA50 was 26.4% for BAT and 25.5% for Enza (p=0.697).
At time of progression, 46 (49%) of patients on the Enza arm crossed over to receive BAT and 34 (33.7%) crossed over from BAT to receive Enza and were available for analysis. Remarkably, the PSAso response for patients who received Enza after BAT was 72.7% compared to 25.5% for patients receiving Enza immediately after Abi, FIG. 19D. Objective response in the Enza post-BAT patients was 28.6% compared to 4.2% post-Abi, FIG. 19B. […] The logical extension of these findings and the hypothesis of this proposal is that patients are likely to respond again to further repeat cycles of BAT and Enza, but this treatment strategy has yet to be explored in the clinical trial setting.

MYC = MYC expression in metastatic tumor biopsies before and after BAT; assay type: in vivo, human; conditions: responding patients
Description: FIG. 5A, FIG. 5B, FIG. 5C, FIG. 5D, and FIG. 5E show: FIG. 5A, MYC expression by IHC in a metastatic tumor biopsy from a patient before and after 3 months of BAT. FIG. 5B, Quantification of MYC protein expression from metastatic tumor biopsies from patients before and after 3 months of BAT color-coded by response (non-responder NR; responder R). […] Vinculin was used as a loading control. FIG. 5D, Principal component analysis of RNA and ATAC sequencing of LNCaP cells treated for 5 days with R1881 10 nM (SPA). […] Vinculin was used as a loading control;

patients with CRPC [2] = assay: Plasma putrescine in patients treated with BAT (COMBAT trial); conditions: human, in vivo
Description: Vinculin was used as a loading control. FIG. 2F, Polyamine synthesis pathway.

[3] = system: patients with CRPC progressing on Enza (Cohort A) or Abi (Cohort B); assay type: in vivo, human
Description: The RESTORE study (NCT02090114) was an NIH sponsored Phase II study designed to assess the safety and efficacy of BAT in patients (n=30 per cohort) with CRPC progressing on Enza (Cohort A) or Abi (Cohort B), FIG. 18A (34,39). The primary endpoint of the first part of the study was to assess PSA response to BAT. Secondary endpoints included objective response, safety, and quality of life. The second part of the study was to determine in BAT could re-sensitize patients to repeat exposure to second line therapy that patients were progressing on prior to receiving BAT. Thus, patients progressing on Enza were re-exposed to Enza after BAT and similarly for Abi. Both arms of this study met the primary endpoint. PSA50 response to BAT was 30% in patient's post-Enza and 18% post-Abi, FIG. 18B. […] Overall duration of response to BAT and duration of response to re-exposure was longer in the post-Enza vs. post-Abi cohort. The PSAso response to re-exposure to Enza was 71% vs. only 21% for patients re-exposed to Abi, FIG. 19B (7). A third cohort was later added (Cohort C) for patients progressing on ADT alone. Overall, 90 patients were treated on this study over a 4-year period (2014-2018).

[4] = system: chronically castrated patients with rising PSA and CRPC; assay: Pilot study of BAT with oral etoposide, then second line therapy post-BAT; assay type: in vivo, human
Description: Based on the preclinical results and potential mechanisms for growth inhibition that include androgen-induced double strand breaks and stabilization of AR preventing relicensing, we have conducted a pilot study evaluating the efficacy and safety of pharmacologic doses of testosterone to produce high dose T levels in conjunction with oral etoposide in chronically castrated patients with rising PSA and CRPC (37). Patients who had been continuously castrate for more than one year with minimal metastatic disease burden (≤5 total bone metastases and ≤10 total sites of metastases) and/or rising PSA were eligible. To achieve rapid cycling between high dose and near castrate serum T (i.e., BAT) patients received intramuscular injection of 400 mg testosterone cypionate every 28 days. For the first 3 cycles of therapy patients received BAT plus oral etoposide 100 mg po/day days 1-14 of a 28-day cycle. After 3 cycles PSA response and objective response were assessed. Those patients with a PSA that was declining from peak levels and no objective evidence of disease progression or worsening pain were continued on therapy. Given the toxicity associated with etoposide and the lack of clinical response in an earlier trial (38), patients who responded after 3 cycles of testosterone plus etoposide were continued on testosterone alone based on protocol amendment.

patients with CRPC [5] = assay: BAT clinical studies, overall experience; assay type: in vivo, human
Description: A major driver of castration resistance is the adaptive upregulation of AR activity, often through AR protein overexpression, to a sufficient level to allow for renewed growth. This marked overexpression of AR makes PCa cells once again vulnerable to hormone shock, achieved not through further androgen blockade, but through exposure to supraphysiologic levels of androgen (SPA). Based on extensive preclinical studies, we developed Bipolar Androgen Therapy (BAT), which involves cyclic administration of SPA as treatment for CRPC.
Inhibition of signaling through the androgen receptor (AR) is the mainstay of treatment of advanced PCa. […] This phase of the disease is associated with poor prognosis and limited therapeutic options. The majority of PCas are addicted to signaling through AR and adaptively upregulate AR-activity, via mechanisms such as AR overexpression, to permit sustained AR signaling despite castration and AR inhibitors (1,2). Studies dating back nearly thirty years indicate that high expression of AR induced by prolonged castration becomes a vulnerability of CRPC cells in vitro and in mouse xenografts to supraphysiological androgen (SPA), which induces cell death and growth arrest in this context (3,4). On the basis of these studies, we developed an innovative treatment called Bipolar Androgen Therapy (BAT) for patients with CRPC, in which SPA is administered intermittently to result in cycling of serum testosterone from supraphysiological to near castrate levels. This rapid cycling is intended to reduce adaptation AR regulation associated with chronic exposure to high or low levels of testosterone, while simultaneously targeting the spectrum of AR expression present in heterogeneous CRPC tumors (5). We have now tested BAT in more than 350 patients with CRPC (6-10).

human T lymphocytes = conditions: CD3/CD28-stimulated cells, 24 hours, 5 donors
Experimental: Protein expression of ODC and AR by western blot of human T cells cultured for 24 hours with vehicle control (EtOH 0.1%), SPA, or enzalutamide (ENZA; 10 μM) in the presence of no stimulation or CD3- and CD28-stimulation with dynabeads. Vinculin is used a loading control. FIG. 22J. Quantification of protein expression of ODC by western blot as per (FIG. 22I), displaying data from independent experiments of 5 different donors with indicated sex. P values by unpaired 2-tailed t test;
To assess whether AR regulates expression of polyamine synthesis enzymes in cells beyond prostate, we isolated human T lymphocytes from peripheral blood of 5 donors, treated unstimulated or CD3/CD28-stimulated cells with vehicle control, SPA, or the AR inhibitor enzalutamide for 24 hours, and measured ODC.

[6] = system: metastatic CRPC, pre-chemotherapy setting; conditions: cited from earlier work
CRPC post docetaxel = conditions: post-docetaxel setting; cited from earlier work
CRPC = conditions: post-abiraterone, pre-chemotherapy setting; cited from earlier work

With `C[C@]12CC[C@H]3[C@@H](CCC4=CC(=O)CC[C@@]43C)[C@@H]1CC[C@@H]2OC(=O)CCC1CCCC1` [BAT, androst-4-en-3-one, 17-(3-cyclopentyl-1-oxopropoxy)-, (17ß)-] the PSA50 response ([1]; BAT after Enza (crossover)) was 22.2%, the PSA50 response ([1]; initial treatment immediately after Abi, no prior crossover) was 26.4% and the “clinical/radiographic PFS” value ([1]; randomized arms) was 5.62 m. The Objective response ([1]; randomized arms, post-Abi) was 24.4%, the “MYC expression in tumor biopsies” value (MYC) was “decreased” and the plasma putrescine abundance (patients with CRPC [2]) was “increased”. The “QoL surveys (FACIT Fatigue, IIEF, SF-36 subscales)” value ([3]; BAT compared to baseline on ADT) was “significant improvement”, the “Adverse events to BAT, grade” value ([3]; in vivo) was “primarily Grade 1-2” and the “patients with grade 3 hypertension attributed to BAT” value ([3]; in vivo) was 3 patients. For the same molecule, the “PSA50 response to BAT” value ([3]; post-Abi (Cohort B)) was 18%, the “PSA50 response to BAT” value ([3]; post-Enza (Cohort A)) was 30% and the “subjects experiencing an AE” value ([4]; BAT monotherapy phase) was “four”. The “patients developing new bone metastases” value ([4]; completing 3 months of therapy) was “None of the 14 patients”, the “AEs during BAT monotherapy phase” value ([4]; in vivo) was “rare and low grade” and the “new pain, skeletal events or urinary obstruction due to prostate cancer” value ([4]; in vivo) was “None of the 14 patients”. For the same molecule, the “patients with decline in PSA from baseline” value ([4]; in vivo) was “Seven of fourteen”, the “PSA decline/response and objective responses, patients” value ([4]; patients who completed three cycles) was 50% and the “median time to PSA progression” value ([4]; seven patients with PSA decline, range 95 to 454 days) was 221 days. For the same molecule, the “complete response (CR)” value ([4]; ten RECIST-evaluable subjects) was 10%, the “partial responses (PRs)” value ([4]; ten RECIST-evaluable subjects) was 40% and the stable disease ([4]; ten RECIST-evaluable subjects, median follow up 91 days) was 30%. For the same molecule, the “progressive disease (PD)” value ([4]; ten subjects with RECIST-evaluable soft tissue metastases) was 20%, the PSA50 response rate (patients with CRPC [5]; 56 days of BAT monotherapy, mCRPC) was “approximately 25%” and the PSA50 response rate (patients with CRPC [5]; 64 days of BAT monotherapy, mCRPC) was “approximately 25%”. For the same molecule, the “PSA/objective (biochemical and objective) response” value (patients with CRPC [5]; human, in vivo) was 20-30%, the quality of life (patients with CRPC [5]; human, in vivo) was “improved quality of life” and the objective response rate (patients with CRPC [5]; mCRPC, monotherapy) was “approximately 30%”.
With `CNC(=O)c1ccc(N2C(=S)N(c3ccc(C#N)c(C(F)(F)F)c3)C(=O)C2(C)C)cc1F` [Enzalutamide, 4-{3-[4-cyano-3-(trifluoromethyl)phenyl]-5,5dimethyl-4-oxo-2-sulfanylideneimidazolidin-1-yl}-2-fluoro-N-methylbenzamide] the PSA50 response ([1]; Enza after BAT (crossover), listed as Enza) was 72.7%, the PSA50 response ([1]; Enza after BAT (crossover), listed as enzalutamide) was 78% and the “Time to PSA progression” value ([1]; Enza immediately post-Abi, without prior BAT) was 3.8 months. The Objective response ([1]; Enza post-BAT) was 28.6%, the “Time to PSA progression” value ([1]; Enza post-BAT) was 10.9 months and the overall survival ([1]; enzalutamide after prior BAT) was 37 months. The overall survival ([1]; enzalutamide without prior BAT) was 29 months, the PSA50 response ([1]; initial treatment immediately after Abi, no prior crossover, listed as Enza) was 25.5% and the PSA50 response ([1]; initial treatment immediately after Abi, no prior crossover, listed as enzalutamide) was 25%. The “fold increase in time to PSA progression on Enza” value ([1]; post-BAT vs immediately post-Abi) was ~3 fold, the “clinical/radiographic PFS” value ([1]; randomized arms) was 5.72 m and the Objective response ([1]; randomized arms, post-Abi) was 4.2%. The ODC protein (human T lymphocytes) was “decreased ODC in all donors”, the “hazard ratio, overall survival vs placebo” value ([6]; 95% CI 0.60 to 0.84) was 0.71 and the median overall survival ([6]; PREVAIL, enzalutamide group) was 32.4 months. The “>50% decline PSA (%)” value ([6]; PREVAIL) was 78%, the “PSA PFS” value ([6]; PREVAIL) was 11.2 and the “TIP (m)” value ([6]; PREVAIL) was 20 m. The “PSA50 response to re-exposure (re-challenge) post-BAT” value ([3]; re-exposed to agent progressed on before BAT) was 71%, the “patients with >50% PSA decline on second line therapy” value ([4]; post-BAT) was 3/4 and the “PSA decline upon re-challenge” value ([4]; post-BAT, agent previously progressed on) was 53.2%. The improvement in survival (CRPC post docetaxel) was “approximately 5 months” and the “median rPFS” value (CRPC) was ≤ 6 months.

Reference: US20260284076A1, “TESTOSTERONE AND DIFLUOROMETHYLORNITHINE COMBINATION THERAPY FOR PROSTATE CANCER” (The Johns Hopkins University, priority 2023, published 2026)
